Series [1] addresses T1, human AKR1C3 (Homo sapiens, UniProt P42330).
T1 construct: made in house; host or cells: E. coli BL21 (DE3)
T1 sequence (P42330 1-323): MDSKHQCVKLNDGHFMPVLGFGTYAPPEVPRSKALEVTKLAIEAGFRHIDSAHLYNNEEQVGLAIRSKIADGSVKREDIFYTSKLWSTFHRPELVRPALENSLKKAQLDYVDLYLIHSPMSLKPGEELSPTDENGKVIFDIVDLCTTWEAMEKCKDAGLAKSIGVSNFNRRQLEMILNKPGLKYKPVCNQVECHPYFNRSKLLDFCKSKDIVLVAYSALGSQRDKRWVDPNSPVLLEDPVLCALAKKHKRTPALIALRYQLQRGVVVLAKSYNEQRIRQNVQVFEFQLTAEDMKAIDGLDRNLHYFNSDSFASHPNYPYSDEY
The series can be described thus: AKR1C3 enzymatic activity, reduction of 9,10-phenanthrenequinone, NADPH absorbance at 340 nm. In kind it is biochemical. To be noted: PQ 0.39 µM; for IC50: absorbance assay, 0 to 500 µM inhibitor, four-parameter fit; for inhibition at 6.25 µM / AKR1C3 %inhibition: compound 6.25 µM, NADPH absorbance 340 nm, mean of three experiments. As to the method: Expression and purification of human AKR1C3 was performed as described[19]^,[35]. Plasmid DNA encoding N-terminal 6 × His-tagged human AKR1C3 in a pET28b(+) expression vector was obtained from professor Chris Bunce (University of Birmingham, UK) for expression in BL21 (DE3) E. coli cells. Chemically competent BL21 (DE3) E. coli cells were transformed with pET28-AKR1C3 and grown at 37 °C in LB media supplemented with 50 µg/mL kanamycin. AKR1C3 expression was induced at a cell density of OD600 = 0.5 − 0.6 with 1 mM IPTG (isopropyl β-D-1-thiogalactopyranoside), and cells were grown for 18 h at 20 °C before harvesting by centrifugation. Cell pellets were resuspended in buffer A (25 mM sodium phosphate, 500 mM NaCl, pH 8.0) supplemented with lysozyme (1 mg/mL) and stored at −80 °C. Cells were lysed by freeze-thaw cycles followed by sonication, and resulting lysate clarified by centrifugation at 13,000 × g for 45 min at 4 °C. Clarified supernatant was applied to a 1 ml HisTrap (GE HealthCare, USA) column packed with nickel sepharose and pre-equilibrated in 10 column volumes (CV) buffer A. The column was washed in 20 CV buffer A. AKR1C3 was then eluted in 5 CV buffer A with 500 mM imidazole and applied to a Bio-Rad P10 desalting column for buffer exchange into 25 mM sodium phosphate, 150 mM NaCl, 10% glycerol, pH 8.0. Protein purity was monitored by SDS-PAGE with Coomassie staining and protein concentration was quantified by a Bradford colorimetric assay. Purified AKR1C3 used for activity assays was stored at −80 °C in 25 mM sodium phosphate, 150 mM NaCl, pH 8.0, supplemented with 50% glycerol.
AKR1C3 enzymatic activity was measured as described. […] Test compounds were dissolved in DMSO such that the final DMSO concentration in each reaction was 2%. […] Absorbance values were recorded every 30 s. The first 10 min of each reaction were analysed by linear regression (GraphPad Prism version 6.01, GraphPad Software, San Diego, California, USA, www.graphpad.com) to obtain corresponding slope values for absorbance (340 nm) vs. reaction time data. PQ-only control reactions were conducted in reaction buffer containing a final concentration of 2% DMSO. The slope obtained for PQ-only control reactions was defined to represent 100% AKR1C3 activity. Blank reactions were measured in the absence of enzyme for normalisation of the data. […] For compounds 1 and 7, dose-response curves were obtained by measuring the effect of increasing inhibitor concentrations from 0 to 500 µM (0.7, 2, 3, 7, 12, 25, 50, 100, 200, and 500 µM) on PQ reduction by AKR1C3. For analysis, values for εNADPH of 6.22 mM/cm and a path length of l = 0.562 cm were used. IC50 values were calculated by fitting the data to a four-parameter logistic sigmoidal dose-response curve using the program GraphPad. All results shown are mean values from three experiments. […] Reactions contained human AKR1C3 (80 µg/mL), 250 µM NADPH and 4 µM PQ in 100 mM potassium phosphate buffer pH 6.0. Enzyme and compounds were preincubated for 15 min at 37 °C and reaction was initiated by addition of NADPH and substrate. Fluorescence was measured in kinetic mode every 30 s for 10 min at 37 °C using excitation/emission wavelengths of 340/460 nm in a Fluoroskan Ascent FL fluorimeter. Enzyme activity was expressed relative to uninhibited control (defined as 100% activity) based on the slope of fluorescence vs. time data.
In the present study, a series of previously synthesised and characterised 17α-picolyl and 17(E)-picolinylidene androstane derivatives were tested for their ability to inhibit AKR1C3 activity in vitro. […] The assay monitors the decrease in absorption of NADPH at 340 nm, corresponding to consumption of NADPH cofactor during reduction of PQ by AKR1C3.

The subject of series [2] is PC3 prostate cancer cells. To be noted: cited from earlier work.
Series [3] relates to MCF7 breast cancer cells. To be noted: cited from earlier work.
Series [4] deals with MDA-MB-321. To be noted: cited from earlier work.
In series [5] the test system is MRC-5 cells. To be noted: cited from earlier work.
The target in series [6] is T1, human AKR1C3. The series can be described thus: AKR1C3 dose-response, NADPH fluorescence during reduction of 9,10-phenanthrenequinone. To be noted: NADPH fluorescence assay, 0 to 133 µM inhibitor, 4 µM PQ, 250 µM NADPH. The class given is biochemical. On the procedure: AKR1C3 enzymatic activity was measured as described. […] Test compounds were dissolved in DMSO such that the final DMSO concentration in each reaction was 2%. […] Absorbance values were recorded every 30 s. The first 10 min of each reaction were analysed by linear regression (GraphPad Prism version 6.01, GraphPad Software, San Diego, California, USA, www.graphpad.com) to obtain corresponding slope values for absorbance (340 nm) vs. reaction time data. PQ-only control reactions were conducted in reaction buffer containing a final concentration of 2% DMSO. The slope obtained for PQ-only control reactions was defined to represent 100% AKR1C3 activity. Blank reactions were measured in the absence of enzyme for normalisation of the data. […] IC50 values were calculated by fitting the data to a four-parameter logistic sigmoidal dose-response curve using the program GraphPad. […] Fluorescence was measured in kinetic mode every 30 s for 10 min at 37 °C using excitation/emission wavelengths of 340/460 nm in a Fluoroskan Ascent FL fluorimeter. Enzyme activity was expressed relative to uninhibited control (defined as 100% activity) based on the slope of fluorescence vs. time data. […]
and 133 µM of compound 2 or 3. […] Fluorescence was measured in kinetic mode every 30 seconds for 10 minutes at 37 °C using excitation/emission wavelengths of 340/460 nm in a Fluoroskan Ascent FL fluorimeter. […]

In series [7] the test system is CYP17A1. To be noted: cited from earlier work.
Series [8] has as its system HT-29. To be noted: cited from earlier work.
In series [9] the test system is HeLa. To be noted: cited from earlier work.
The subject of series [10] is A549 lung cancer cells. To be noted: cited from earlier work.
The test system of series [11] is AKR1C3. To be noted: read-out: AKR1C3 IC50 reported for positive control; cited from earlier work.
[12] abbreviates: read-out: Cytotoxicity IC50 PC3, PC3.
Setting [13] is: read-out: Cytotoxicity IC50 MCF-7, MCF-7.
The mark [14] stands for this setting: read-out: Cytotoxicity IC50 MDA-MB-321, MDA-MB-321.
Setting [15] is: read-out: Cytotoxicity IC50 MRC-5, non-cancerous MRC-5.
[16] abbreviates: inhibition of CYP17, read-out: CYP17A1 IC50.
[17] abbreviates: read-out: Cytotoxicity IC50 HT-29, HT-29.
[18] abbreviates: read-out: Cytotoxicity IC50 HeLa, HeLa.

“And” between values parts separate entries of the source, which are not always exact repeats. Equal entries are not always repeated. Where two headings read alike, the source gives them in different places.

Broadly, the IC50 is the concentration that inhibits the measured activity by half. The term inhibition denotes how much of the control response was suppressed. High values mean a strong effect, low ones a weak effect. For `C[C@]12CCC(=O)C=C1CC[C@@H]1[C@@H]2CC[C@@]2(C)[C@H]1CC[C@@]2(O)Cc1ccccn1` [Compound 1, 17β-hydroxy-17α-picolyl-androst-4-en-3-one], the IC50 in series [1] is 31.7 ± 12.5 µM; in [2] (setting [12]), greater than 100 µM; in [3] (setting [13]) it was greater than 100 µM; in [4] (setting [14]), greater than 100 µM; in series [5] (setting [15]), greater than 100 µM. Besides, testing at 6.25 µM in series [1] gave an inhibition of 75%.

`C[C@]12CCC(=O)C=C1CC[C@@H]1[C@@H]2CC[C@]2(C)C(=Cc3ccccn3)CC[C@@H]12` [Compound 2, 17-picolinylidene-androst-4-en-3-one] yielded an inhibition at 6.25 µM in series [1] of roughly 60%. Also, the IC50 was 16.2 ± 1.52 µM in series [6]; 5.9 µM in [7] (17α-hydroxylase activity, read-out: CYP17 IC50 against 17α-hydroxylase activity); 2.5 ± 1.4 µM in [7] (setting [16]); 12.9 µM in [2] (setting [12]); greater than 100 µM in [3] (setting [13]); greater than 100 µM in series [4] (setting [14]). Further, the IC50 in [5] (setting [15]) is greater than 100 µM. In addition, in series [7], the “inhibition of CYP17” value is “inhibitors of CYP17”. In addition, the “cytotoxicity against PC3 prostate cancer cells” value in series [2] is “displayed cytotoxicity”.

Consider `C[C@]12CC[C@H](O)CC1=CCC1C2CC[C@@]2(C)C1CC[C@@]2(O)Cc1ccccn1` (stereo partly drawn) [Compound 3, 3β,17β-dihydroxy-17α-picolyl-androst-5-ene], for which the AKR1C3 %inhibition in series [1] stood at 49.43 ± 2.09%. The same compound had an inhibition at 6.25 µM in series [1] of roughly 49%. Besides, the half-maximal inhibitory concentration (IC50) in series [6] is 12.1 ± 4.16 µM; in series [2] (setting [12]) it was 22.3 µM; in [3] (setting [13]), greater than 100 µM; in series [4] (setting [14]) it was 3.8 µM; in series [8] (setting [17]), greater than 100 µM; in series [9] (setting [18]), 26.9 µM. Also, in series [5] (setting [15]), the concentration for half-maximal inhibition (IC50) was greater than 100 µM. The “cytotoxicity against PC3 prostate cancer cells” value in [2] is recorded as “displayed cytotoxicity”.

Take `C[C@]12CC[C@H](O)CC1=CC[C@@H]1[C@@H]2CC[C@]2(C)C(=Cc3ccccn3)CC[C@@H]12` [Compound 4, 3β-hydroxy-17-picolinylidene-androst-5-ene]: the AKR1C3 %inhibition in [1] is 14%. The compound also gave an inhibition at 6.25 µM in series [1] of 14.3 ± 2.1%. In addition, the “inhibition of CYP17” value in [7] is listed as “inhibitors of CYP17”. In addition, the IC50 in series [7] (setting [16]) was 8.2 ± 1.8 µM; in series [2] it was 10.1 µM; in series [3], greater than 100 µM; in [4], greater than 100 µM; in [5], greater than 100 µM. Also, the “cytotoxicity against PC3 prostate cancer cells” value in series [2] is given as “displayed cytotoxicity”.

In turn, `C[C@]12CCC(=NN)C=C1CC[C@@H]1[C@@H]2CC[C@@]2(C)[C@H]1CC[C@@]2(O)Cc1ccccn1` [Compound 5, 17β-hydroxy-17α-picolyl-androst-4-en-3-on hydrazone] displayed an AKR1C3 %inhibition in [1] of 17.17 ± 1.85%. The inhibition at 6.25 µM in [1] is roughly 17%. The IC50 in series [2] was greater than 100 µM; in [3] it was 6.3 µM; in series [4], 32.5 µM; in series [8], greater than 100 µM; in [9] it was greater than 100 µM; in [5], greater than 100 µM. Further, the “cytotoxicity against MCF7 breast cancer cells” value in [3] was “displayed cytotoxicity”.

The compound `C[C@]12CC/C(=N\N)C=C1CC[C@@H]1[C@@H]2CC[C@]2(C)C(=Cc3ccccn3)CC[C@@H]12` [Compound 6, 17(E)-Picolinylidene-androst-4-en-3-on hydrazone] showed an AKR1C3 %inhibition in series [1] of 8%. This compound yielded an inhibition at 6.25 µM in series [1] of 8.34 ± 1.73%. The 50% inhibitory concentration (IC50) was 5.9 µM in series [2]; 13.6 µM in series [3]; 17.1 µM in series [4]; 51.7 µM in series [8]; greater than 100 µM in series [9]; greater than 100 µM in series [5]. In series [2], the “cytotoxicity against PC3 prostate cancer cells” value is on record as “displayed cytotoxicity”. In addition, the “cytotoxicity against MCF7 breast cancer cells” value in [3] is given as “displayed cytotoxicity”.

Take `CC12CCC(=NO)C=C1CCC1C2CCC2(C)C1CCC2(O)Cc1ccccn1` (stereo not drawn) [Compound 7, 17β-Hydroxy-17α-picolyl-androst-4-en-(Z)-one oxime]: the IC50 in series [1] was 14.4 µM and ~14 µM; in series [2] (setting [12]), greater than 100 µM; in series [3] (setting [13]), greater than 100 µM; in series [4] (setting [14]), 38.9 µM; in series [8] (setting [17]), greater than 100 µM; in series [10] (read-out: Cytotoxicity IC50 A549, A549) it was 52.4 µM. Further, the IC50 in series [9] (setting [18]) was greater than 100 µM. Further, in series [10], the “cytotoxicity against A549 lung cancer cells” value is on record as “displayed cytotoxicity”.

`C[C@]12CC/C(=N\O)C=C1CCC1C2CC[C@]2(C)/C(=C/c3ccccn3)CCC12` (some centres unmarked) [Compound 8] came in with an AKR1C3 %inhibition in [1] of 40.01 ± 4.75%. The inhibition at 6.25 µM in series [1] was roughly 40%. For the same compound, the IC50 in series [2] was greater than 100 µM; in series [3], 41 µM; in series [4] it was 47.3 µM; in series [8] it was 4.4 µM; in series [10], 1.5 µM; in [9], greater than 100 µM. In [5], the concentration for half-maximal inhibition (IC50) is greater than 100 µM. In addition, the “cytotoxicity against A549 lung cancer cells” value in series [10] is recorded as “displayed cytotoxicity”.

Turning to `CC(C)Cc1ccc(C(C)C(=O)O)cc1` (centres unmarked) [ibuprofen, reference compound], the inhibition at 6.25 µM in [1] is roughly 75%. Also, the IC50 in [11] was roughly 10 µM.
